Results reported in patent US7033595B1, “Pseudotyped retroviruses and stable cell lines for their production” (priority 1998, dated 2006).

Legend:
Format in all cases: cell-based
[1] = tested on: VSV-G pseudotyped retrovirus
wild type MMLV = tested on: wild type MMLV
[2] = tested on: Ross-River E2-E1 pseudotyped retrovirus

| SMILES | inhibition of VSV-G pseudotyped retrovirus entry [1] | effect on wild type MMLV entry (wild type MMLV) | inhibition of transduction by Ross River glycoprotein-pseudotyped viruses [2] |
| --- | --- | --- | --- |
| CCN(CC)CCCC(C)Nc1ccnc2cc(Cl)ccc12 (centres unmarked) [chloroquine] | inhibit | only partially affects | dramatic inhibition |
| Cl.N [ammonium chloride] | inhibit | – | dramatic inhibition |
